Assay results: ChEMBL document CHEMBL1128388, “Ocular delivery of the beta-adrenergic antagonist alprenolol by sequential bioactivation of its methoxime analogue” (J Med Chem, 1995)
Active and inactive are the calls of the source. The rule behind the calls is not given here.

Assays:
[1] = tested on: Oryctolagus cuniculus; experiment: Average IOP after administration was determined; format: functional
[2] = Time within which only 10% of the drug was degraded; format: ADME; details: pH 4.50, room temperature
[3] = tested on: Oryctolagus cuniculus; experiment: Compound was tested for decrease in IOP (in vivo); 18% reduction of the control 21.4+/-0.3 mmHg; format: functional
[4] = tested on: Oryctolagus cuniculus; experiment: Compound was tested for decrease in IOP for 2-3 h (in vivo); Significant reduction was observed; format: functional, organism-based

Structure (SMILES)	Average IOP [1] [mmHg]	t0.9 [2] [days]	Activity [3] [mmHg]	Activity [4]
C=CCc1ccccc1OC/C(CNC(C)C)=N\OC	21.4	75	3.8	–
C=CCc1ccccc1OC/C(CNC(C)C)=N\O	21.8	44	–	–
C=CCc1ccccc1OCC(O)CNC(C)C (configuration not stated) [ALPRENOLOL]	20.6	–	–	Active
